From patent publication US20250197374A1, “WEE1 DEGRADING COMPOUNDS AND USES THEREOF” (BRISTOL-MYERS SQUIBB COMPANY, priority 2023, published 2025)
Where two headings read alike, the source gives them in different places.

Key:
Assay type in all cases: cell-based
MKN45 cells = experiment: MKN45 cell proliferation assay (Cell-Titer-Glo, 120 hr); conditions: for EC50: read-out: MKN45 Cell Prolif. 120 hr EC50; for MKN45 Cell Prolif. 120 hr YMin (%): minimal percent of DMSO control observed
Text: (§1) MKN45 cells were obtained from Celgene internal cell banks and cultured in RPMI complete media (RPMI-1640, 1× Penicillin/Streptomycin, 1× glutamine, 1× Sodium Pyruvate, Non-essential Amino Acids, 10% Fetal Bovine serum, all component from Thermo-Fisher). MDA-MB-231 cells were obtained from the ATCC (HTB-26) and cultured in RPMI-1640 and 10% Fetal Bovine serum; MDA-MB-231 cells were expanded and stored as aliquots in liquid nitrogen in Celgene internal cell banks. Compounds were dispensed into 384-well plates using an HP DE300 compound printer in triplicate with 8 compounds on each plate. Compounds were dispensed into 384-well black clear bottom plates (Corning #3764BC) using an EDC acoustic dispenser at BMS. For each compound, a 10-point dose response was printed at half-log dilutions starting at either 1 uM or 10 uM in triplicate for MKN45 cells and in duplicate for MDA-MB-231 cells. The DMSO concentration was kept constant for a final assay concentration of 0.1% per well assuming 50 ul final media volume. Compound plates were sealed and frozen at −20 C until use.
(§2) For each assay batch, compound plates were thawed and allowed to reach room temperature, and cells were seeded at 400 MKN45 cells per well, or 800 MDA-MB-231 cells per well, in 50 ul media listed above for each cell line. After 120 hours of incubation at 37 C and 5% CO2, cells were lysed by addition of 25 μL of Cell-Titer-Glo Reagent (Promega Corporation, Madison, WI), as per manufacturer's instructions, protected from light, shaken for 45 minutes, and total luminescence read by a Perkin Elmer Envision plate reader. Total luminescence signal is linearly correlated with cell number remaining in the well.
(§3) Luminescence data was processed per plate by subtracting reagent-only “blank” well luminescence from all measured values and calculating a percent of DMSO control value for each treatment well. Then, to determine the half-maximal effective concentration (EC50) values for cell growth inhibition, a four parameter logistic model was fit to the data for each DMSO-normalized compound: Sigmoidal Dose-Response Model: (FIT=(A+((B−A)/1+((C/x)^D)))) where C is the inflection point ([…]), D is the Hill slope, and A and B are the low and high limits of the fit respectively. The lower limit of the fit (value A) is referred to as Ymin-calculated. The minimal percent of DMSO control that is observed in the concentrations tested for each compound is labeled as “Ymin-obs”, and was recorded and reported in the tables. Sigmoidal fit curves were processed and evaluated using Activity Base (IDBS, Alameda, CA) or using Dotmatics (Boston, MA). N/A=not available at the present time.

WEE1 = target: T1, WEE1 (Homo sapiens, UniProt P30291+Q96SW2); experiment: WEE1-ePL degradation assay (293T-LentiX, InCELL Hunter luminescence, 4 hr); conditions: for DC50: LentiX-HEK293T cells expressing WEE1-ePL, 4 hr incubation, read-out: 293T-LentiX WEE1-ePL Degradation 4 hr EC50; for 293T-LentiX WEE1-ePL Degradation 4 hr YMin (%): lower limit of fit, % of DMSO control signal remaining
T1 construct: C-terminal ePL-tagged (DiscoverX, Fremont, CA) full-length WEE1 expression construct; expressed in transfected cells; host or cells: LentiX-HEK293T (Invitrogen), lentivirally transduced; the cells also over-express GSPT1-GN
T1 sequence (P30291 whole entry): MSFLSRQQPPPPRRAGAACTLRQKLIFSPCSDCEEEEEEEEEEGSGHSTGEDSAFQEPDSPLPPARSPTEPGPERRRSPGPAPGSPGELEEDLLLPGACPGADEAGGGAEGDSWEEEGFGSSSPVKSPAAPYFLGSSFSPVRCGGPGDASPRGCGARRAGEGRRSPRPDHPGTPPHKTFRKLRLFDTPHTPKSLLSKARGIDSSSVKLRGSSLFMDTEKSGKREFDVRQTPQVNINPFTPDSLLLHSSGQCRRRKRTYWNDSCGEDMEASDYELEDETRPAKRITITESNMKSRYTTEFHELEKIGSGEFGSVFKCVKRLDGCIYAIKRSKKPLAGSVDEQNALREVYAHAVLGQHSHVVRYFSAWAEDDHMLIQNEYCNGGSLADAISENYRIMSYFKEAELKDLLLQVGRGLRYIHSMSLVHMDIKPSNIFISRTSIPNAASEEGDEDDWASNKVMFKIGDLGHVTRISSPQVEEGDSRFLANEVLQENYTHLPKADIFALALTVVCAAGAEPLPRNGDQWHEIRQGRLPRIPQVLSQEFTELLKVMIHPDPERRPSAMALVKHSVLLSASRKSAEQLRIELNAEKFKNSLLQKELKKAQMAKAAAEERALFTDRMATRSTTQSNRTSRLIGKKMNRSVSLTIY
T1 sequence (Q96SW2 whole entry): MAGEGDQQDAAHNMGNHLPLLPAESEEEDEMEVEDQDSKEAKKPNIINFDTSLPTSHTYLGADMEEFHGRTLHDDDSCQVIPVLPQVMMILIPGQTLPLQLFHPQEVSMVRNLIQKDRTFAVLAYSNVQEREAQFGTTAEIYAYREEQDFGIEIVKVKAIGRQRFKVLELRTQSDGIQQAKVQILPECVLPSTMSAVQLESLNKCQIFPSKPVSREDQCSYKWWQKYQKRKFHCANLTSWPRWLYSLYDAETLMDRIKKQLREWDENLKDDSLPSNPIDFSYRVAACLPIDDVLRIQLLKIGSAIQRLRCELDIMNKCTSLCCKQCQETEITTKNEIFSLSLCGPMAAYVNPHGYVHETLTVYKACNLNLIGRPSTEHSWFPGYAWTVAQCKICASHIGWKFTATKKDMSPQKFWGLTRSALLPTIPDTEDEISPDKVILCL
T1 sequence (Q16531 whole entry partner): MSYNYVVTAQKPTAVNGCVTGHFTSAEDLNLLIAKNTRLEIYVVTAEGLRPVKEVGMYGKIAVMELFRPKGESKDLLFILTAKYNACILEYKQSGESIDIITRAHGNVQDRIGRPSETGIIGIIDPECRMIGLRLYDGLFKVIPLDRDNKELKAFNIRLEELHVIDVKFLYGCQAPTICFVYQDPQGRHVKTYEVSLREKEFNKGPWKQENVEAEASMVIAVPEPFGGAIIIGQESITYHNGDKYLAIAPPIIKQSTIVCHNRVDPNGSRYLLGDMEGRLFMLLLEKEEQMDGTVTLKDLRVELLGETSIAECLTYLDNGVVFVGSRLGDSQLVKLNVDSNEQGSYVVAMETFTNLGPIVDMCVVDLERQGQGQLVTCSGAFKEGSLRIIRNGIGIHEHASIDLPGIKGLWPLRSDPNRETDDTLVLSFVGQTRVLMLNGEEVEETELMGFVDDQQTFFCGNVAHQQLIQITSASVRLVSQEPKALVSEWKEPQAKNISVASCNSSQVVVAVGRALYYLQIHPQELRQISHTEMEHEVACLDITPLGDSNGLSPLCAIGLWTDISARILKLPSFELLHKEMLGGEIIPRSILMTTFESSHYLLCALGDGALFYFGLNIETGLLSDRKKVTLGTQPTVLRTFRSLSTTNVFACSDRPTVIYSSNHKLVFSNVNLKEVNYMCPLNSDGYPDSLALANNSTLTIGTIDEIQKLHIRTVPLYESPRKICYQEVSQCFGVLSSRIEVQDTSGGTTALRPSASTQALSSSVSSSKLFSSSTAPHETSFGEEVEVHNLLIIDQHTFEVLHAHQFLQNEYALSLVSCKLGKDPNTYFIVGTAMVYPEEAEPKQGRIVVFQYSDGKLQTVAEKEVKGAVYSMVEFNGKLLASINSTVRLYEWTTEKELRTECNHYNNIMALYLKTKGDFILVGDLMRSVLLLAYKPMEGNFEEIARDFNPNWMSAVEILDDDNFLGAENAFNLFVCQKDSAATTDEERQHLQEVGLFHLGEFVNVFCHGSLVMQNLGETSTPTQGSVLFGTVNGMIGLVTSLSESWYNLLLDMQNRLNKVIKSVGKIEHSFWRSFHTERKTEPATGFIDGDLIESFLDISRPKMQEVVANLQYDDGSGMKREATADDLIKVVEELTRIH
Text: To generate LentiX-WEE1-ePL-GSPT1-ND cells for the WEE1 degradation assay, LentiX-HEK293T (Invitrogen) were tranduced by lentivirus with a C-terminal ePL-tagged (DiscoverX, Fremont, CA) full-length WEE1 expression construct. A separate lentiviral construct was introduced to over-express a mutated form of GSPT1 (NP_002085), termed GSPT1-GN, which contains a G575N mutation and is further truncated in the first 158 amino acids. GSPT1-GN is functional but not degradable by Cereblon. Cells were selected and maintained in complete DMEM media (DMEM, 10% Heat Inactivated FBS, 400 μg/mL Geneticin, and 1 μg/mL puromycin at 37 C and 5% CO2). Cells were passaged every 3-4 days by reseeding 1×10^6 cells in a T150 flask.
Cells were dispensed into 384-well white plates (Corning #3570, NY) that were pre-spotted with compounds using an acoustic dispenser (Echo acoustic transfer system, Beckman Coulter Life Sciences, Carlsbad, CA) as a 10-point dose-response curve with a 3-fold dilution starting at either 1 uM or 10 uM and including a DMSO control. Twenty-five microliters of media containing 2500 cells for LentiX-oeWEE1-ePL was dispensed per well. Assay plates were incubated at 37° C. with 5% CO2 for four hours (WEE1) After incubation, 25 μL of the InCELL Hunter™ Detection Reagent Working Solution (DiscoverX, Fremont, CA) was added to each well and incubated at room temperature for 30 minutes protected from light. After 30 minutes, luminescence was read on a PHERAstar luminometer (Cary, NC).
To determine the half-maximal effective concentration (EC50) values for WEE1-ePL degradation, a four parameter logistic model was used: (Sigmoidal Dose-Response Model) (FIT=(A+((B−A)/1+((C/x)^D)))) where C is the inflection point (EC50), D is the Hill slope, and A and B are the low and high limits of the fit respectively). The lower limit of the fit (value A) is referred to as Ymin. […] The maximum limit constraint, Ymax, is similarly derived using DMSO control. The curves were processed and evaluated using Activity Base (IDBS, Alameda, CA) or using Dotmatics (Boston, MA).

MDA-MB-231 cells = experiment: MDA-MB-231 cell proliferation assay (Cell-Titer-Glo, 120 hr); conditions: for EC50: read-out: MDA-MB 231 Cell Prolif. 120 hr EC50; for MDA-MB 231 Cell Prolif. 120 hr YMin (%): minimal percent of DMSO control observed
Text: as §1, §2, §3

[1] = Homo sapiens, MDA-MB-231, 120 h

EC50 (MKN45 cells; Homo sapiens, MKN-45, 120 h) [nM]	DC50 (WEE1) [nM]	293T-LentiX WEE1-ePL Degradation 4 hr YMin (%) (WEE1)	EC50 (MDA-MB-231 cells; [1]) [nM]	EC50 (MKN45 cells) [nM]	EC50 (MDA-MB-231 cells) [nM]	SMILES	MKN45 Cell Prolif. 120 hr YMin (%) (MKN45 cells)	MDA-MB 231 Cell Prolif. 120 hr YMin (%) (MDA-MB-231 cells)
11	41	25.5	99			COC[C@@H]1CN(Cc2cc(F)c3nc(C4CCCO4)ncc3c2)C[C@H]1Oc1ccc2c(c1)CN([C@H]1CCC(=O)NC1=O)C2=O (mixture of isomers) [Example 76, rel-(3S)-3-(5-{[(3S,4S)-1-{[8-fluoro-2-(oxolan-2-yl)quinazolin-6-yl]methyl}-4-(methoxymethyl)pyrrolidin-3-yl]oxy}-1-oxo-2,3-dihydro-1H-isoindol-2-yl)piperidine-2,6-dione]	9.4	17.9
233	12	40.9	61			CC(C)(O)[C@@H]1CN(Cc2ccc3nc(C4CCOCC4)ccc3c2)C[C@H]1Oc1ccc2c(c1)CN([C@H]1CCC(=O)NC1=O)C2=O (racemic) [Example 137, rel-(3S)-3-(5-((4-(2-hydroxypropan-2-yl)-1-((2-(tetrahydro-2H-pyran-4-yl)quinolin-6-yl)methyl)pyrrolidin-3-yl)oxy)-1-oxoisoindolin-2-yl)piperidine-2,6-dione]	70.6	77.3
348	3	48.1	≥ 10300			COC(C)(C)[C@@H]1CN(Cc2ccc3nc(C4CCOCC4)ccc3c2)C[C@H]1Oc1ccc2c(c1)CN([C@H]1CCC(=O)NC1=O)C2=O (racemic) [Example 138, (3S)-3-(5-((4-(2-methoxypropan-2-yl)-1-((2-(tetrahydro-2H-pyran-4-yl)quinolin-6-yl)methyl)pyrrolidin-3-yl)oxy)-1-oxoisoindolin-2-yl)piperidine-2,6-dione]	80.2	94.6
337			2720			O=C1CCC(N2C(=O)c3ccc(O[C@H]4CCN(Cc5ccc6nc(N7CCOCC7)ncc6c5)C4)cc3C2=O)C(=O)N1 (single isomer, unassigned) [Example 12, 2-((S*)-2,6-dioxopiperidin-3-yl)-5-(((S)-1-((2-morpholino-quinazolin-6-yl)methyl)pyrrolidin-3-yl)oxy)isoindoline-1,3-dione]	40.6	79.6
				205	2990	O=C1CCC(N2C(=O)c3ccc(O[C@H]4CCN(Cc5ccc6nc(N7CCOCC7)ncc6c5)C4)cc3C2=O)C(=O)N1 (single isomer, unassigned) [Example 27, 2-((R*)-2,6-dioxopiperidin-3-yl)-5-(((S)-1-((2-morpholino-quinazolin-6-yl)methyl)pyrrolidin-3-yl)oxy)isoindoline-1,3-dione]	29.1	81.8
	2	20.9				COC[C@@H]1CN(Cc2ccc3nc(N4CCN(C(C)=O)C5(COC5)C4)ncc3c2)C[C@H]1Oc1ccc2c(c1)CN([C@H]1CCC(=O)NC1=O)C2=O [Example 95, (3S)-3-(5-{[(3S,4S)-1-[(2-{5-acetyl-2-oxa-5,8-diazaspiro[3.5]nonan-8-yl}quinazolin-6-yl)methyl]-4-(methoxymethyl)pyrrolidin-3-yl]oxy}-1-oxo-2,3-dihydro-1H-isoindol-2-yl)piperidine-2,6-dione]		
	1	24.6				COC[C@@H]1CN(Cc2cc(F)c3nc(C)c(N4CCOCC4)cc3c2)C[C@H]1Oc1ccc2c(c1)CN([C@H]1CCC(=O)NC1=O)C2=O [Example 100, (3S)-3-(5-{[(3S,4S)-1-{[8-fluoro-2-methyl-3-(morpholin-4-yl)quinolin-6-yl]methyl}-4-(methoxymethyl)pyrrolidin-3-yl]oxy}-1-oxo-2,3-dihydro-1H-isoindol-2-yl)piperidine-2,6-dione]		
	3	33.0				COC[C@@H]1CN(Cc2ccc3cc(N4CCOCC4)cnc3c2F)C[C@H]1Oc1ccc2c(c1)CN([C@H]1CCC(=O)NC1=O)C2=O [Example 101, (3S)-3-(5-{[(3S,4S)-1-{[8-fluoro-3-(morpholin-4-yl)quinolin-7-yl]methyl}-4-(methoxymethyl)pyrrolidin-3-yl]oxy}-1-oxo-2,3-dihydro-1H-isoindol-2-yl)piperidine-2,6-dione]		
		25.4				COC[C@@H]1CN(Cc2cc3ccc(N4CCN(C(C)=O)CC4)cc3c(F)n2)C[C@H]1Oc1ccc2c(c1)CN([C@H]1CCC(=O)NC1=O)C2=O [Example 124, (3S)-3-(5-{[(3S,4S)-1-{[7-(4-acetylpiperazin-1-yl)-1-fluoroisoquinolin-3-yl]methyl}-4-(methoxymethyl)pyrrolidin-3-yl]oxy}-1-oxo-2,3-dihydro-1H-isoindol-2-yl)piperidine-2,6-dione]		
	4	29.2				O=C1CC[C@H](N2Cc3cc(O[C@@H]4CN(Cc5cc(F)c6nc(C7CCOCC7)ccc6c5)C[C@H]4OCC4CC4)ccc3C2=O)C(=O)N1 [Example 125, (3S)-3-(5-{[(3R,4R)-4-(cyclopropyl-methoxy)-1-{[8-fluoro-2-(oxan-4-yl)quinolin-6-yl]methyl}pyrrolidin-3-yl]oxy}-1-oxo-2,3-dihydro-1H-isoindol-2-yl)piperidine-2,6-dione]		
	5	44.9				CC(C)O[C@@H]1CN(Cc2cc(F)c3nc(C4CCOCC4)ccc3c2)C[C@H]1Oc1ccc2c(c1)CN([C@H]1CCC(=O)NC1=O)C2=O [Example 132, (3S)-3-(5-{[(3R,4R)-1-{[8-fluoro-2-(oxan-4-yl)quinolin-6-yl]methyl}-4-(propan-2-yloxy)pyrrolidin-3-yl]oxy}-1-oxo-2,3-dihydro-1H-isoindol-2-yl)piperidine-2,6-dione]		
	3	21.4				COC[C@@H]1CN(Cc2cc(F)c3nc(C4CCN(C5COC5)CC4)ncc3c2)C[C@H]1Oc1ccc2c(c1)CN([C@H]1CCC(=O)NC1=O)C2=O [Example 144, (3S)-3-(5-{[(3S,4S)-1-({8-fluoro-2-[1-(oxetan-3-yl)piperidin-4-yl]quinazolin-6-yl}methyl)-4-(methoxymethyl)pyrrolidin-3-yl]oxy}-1-oxo-2,3-dihydro-1H-isoindol-2-yl)piperidine-2,6-dione]		
